The record followed here is ChEMBL document CHEMBL5113408, “Design, synthesis and antitumour activity of novel 5(6)-amino-benzimidazolequinones containing a fused morpholine” (Eur J Med Chem, 2022).

Format in all cases: functional, cell-based
For experiment [1], the system named is MGC-803. Kind of experiment: Antiproliferative activity against human MGC-803 cells assessed as inhibition of cell growth by SRB assay.
Experiment [2] has as its system MCF7. The experiment can be described thus: Antiproliferative activity against human MCF7 cells assessed as inhibition of cell growth by SRB assay. In general terms: The SRB assay estimates cell density from bound dye.
For experiment [3], the system named is ECa-109 cell line. Kind of experiment: Antiproliferative activity against human EC109 cells assessed as inhibition of cell growth by SRB assay.
Experiment [4] has as its system HeLa. The experiment can be described thus: Antiproliferative activity against human HeLa cells assessed as inhibition of cell growth by SRB assay.

In general, IC50 refers to the midpoint of a concentration-inhibition curve. Regarding `O=C1C=C(Nc2ccccc2F)C(=O)c2c1nc1n2C[C@@H]([C@H](O)CO)OC1`, the IC50 in experiment [1] was determined as 3.24 µM; in experiment [2] it was 9.17 µM; in experiment [3] it was 7.88 µM; in experiment [4], 5.86 µM.

Consider `Cc1ccc(NC2=CC(=O)c3nc4n(c3C2=O)C[C@@H]([C@H](O)CO)OC4)cc1C`, for which the IC50 in experiment [1] stood at 2.59 µM; in experiment [2], 6.26 µM; in experiment [3], 6.74 µM; in experiment [4], 4.5 µM.

With `CCc1ccc(NC2=CC(=O)c3nc4n(c3C2=O)[C@H]2OC[C@@H](O)[C@H]2OC4)cc1`, the 50% inhibitory concentration (IC50) in experiment [1] is 1.29 µM; in experiment [2], 0.96 µM; in experiment [3], 3.08 µM; in experiment [4], 3.99 µM.

Regarding `O=C1C=C(Nc2ccccc2)C(=O)c2c1nc1n2[C@H]2OC[C@@H](O)[C@H]2OC1`, the IC50 is 1.73 µM in experiment [1], more than 4 µM in experiment [2], 4.97 µM in experiment [3] and 5.62 µM in experiment [4].

With `COc1ccccc1NC1=CC(=O)c2c(nc3n2C[C@@H]([C@H](O)CO)OC3)C1=O`, the IC50 in experiment [1] was 4.42 µM; in experiment [2] it was 6.81 µM; in experiment [3], 7.64 µM; in experiment [4] it was 8.97 µM.

With `CCCc1ccc(NC2=CC(=O)c3c(nc4n3C[C@@H]([C@H](O)CO)OC4)C2=O)cc1`, the IC50 in experiment [1] turned out to be 4.63 µM; in experiment [2], 9.44 µM; in experiment [3] it was 5.12 µM; in experiment [4] it was 6.17 µM.

As to `CCOc1ccc(NC2=CC(=O)c3nc4n(c3C2=O)[C@H]2OC[C@@H](O)[C@H]2OC4)cc1`, the IC50 in experiment [1] is 1.11 µM; in experiment [2], 1.43 µM; in experiment [3], 3.21 µM; in experiment [4] it was 3.11 µM.

With `O=C1C(Nc2ccc(C(F)(F)F)cc2)=CC(=O)c2c1nc1n2[C@H]2OC[C@@H](O)[C@H]2OC1`, the IC50 is 1.86 µM in experiment [1], more than 4 µM in experiment [2], 2.25 µM in experiment [3] and 8.92 µM in experiment [4].

In the case of `O=C1C=C(Nc2cccc(F)c2)C(=O)c2c1nc1n2C[C@@H]([C@H](O)CO)OC1`, the IC50 was 4.46 µM in experiment [1], more than 16 µM in experiment [2], 7.93 µM in experiment [3] and 6.59 µM in experiment [4].

On to `CCCN(CCC)C1=CC(=O)c2c(nc3n2[C@H]2OC[C@@H](O)[C@H]2OC3)C1=O`, for which the half-inhibitory concentration (IC50) in experiment [1], in experiment [2], in experiment [3] and in experiment [4] was more than 16 µM each time.

As for `O=C1C=C(NCc2ccccc2)C(=O)c2c1nc1n2[C@H]2OC[C@@H](O)[C@H]2OC1`, the IC50 in experiment [1] is 2.67 µM; in experiment [2], more than 8 µM; in experiment [3], more than 8 µM; in experiment [4], more than 8 µM.

As to `COc1ccc(NC2=CC(=O)c3nc4n(c3C2=O)C[C@@H]([C@H](O)CO)OC4)cc1`, the concentration for half-maximal inhibition (IC50) was 8.9 µM in experiment [1], more than 16 µM in experiment [2], more than 16 µM in experiment [3] and 7.15 µM in experiment [4].

For the compound `O=C1C(N2CCC2)=CC(=O)c2c1nc1n2[C@H]2OC[C@@H](O)[C@H]2OC1`, the half-inhibitory concentration (IC50) in experiment [1], in experiment [2], in experiment [3] and in experiment [4] was more than 16 µM each time.

With `O=C1C=C(Nc2ccc(Br)cc2)C(=O)c2c1nc1n2[C@H]2OC[C@@H](O)[C@H]2OC1`, the IC50 in experiment [1] was 1.01 µM; in experiment [2] it was 2.58 µM; in experiment [3], 2.85 µM; in experiment [4], 3.83 µM.

As for `CCOc1ccccc1NC1=CC(=O)c2nc3n(c2C1=O)[C@H]1OC[C@@H](O)[C@H]1OC3`, the half-inhibitory concentration (IC50) in experiment [1] is 2.45 µM; in experiment [2] it was more than 4 µM; in experiment [3], 4.63 µM; in experiment [4], 6.04 µM.

Turning to `COc1ccc(NC2=CC(=O)c3c(nc4n3C[C@@H]([C@H](O)CO)OC4)C2=O)cc1`, the 50% inhibitory concentration (IC50) amounted to 6.76 µM in experiment [1], 11.4 µM in experiment [2], 10.8 µM in experiment [3] and 8.19 µM in experiment [4].

Turning to `CCCN(CCC)C1=CC(=O)c2nc3n(c2C1=O)[C@H]1OC[C@@H](O)[C@H]1OC3`, the half-maximal inhibitory concentration (IC50) in experiment [1], in experiment [2], in experiment [3] and in experiment [4] was more than 16 µM each time.

With `O=C1C=C(Nc2cccc(Cl)c2)C(=O)c2c1nc1n2C[C@@H]([C@H](O)CO)OC1`, the half-maximal inhibitory concentration (IC50) in experiment [1] amounted to 5.27 µM; in experiment [2] it was 9.4 µM; in experiment [3], 11.3 µM; in experiment [4], 4.06 µM.

Consider `CCc1ccc(NC2=CC(=O)c3c(nc4n3C[C@@H]([C@H](O)CO)OC4)C2=O)cc1`, for which the IC50 came to 3.69 µM in experiment [1], 6.57 µM in experiment [2], 4.54 µM in experiment [3] and 4.59 µM in experiment [4].

As for `O=C1C=C(Nc2ccccc2F)C(=O)c2c1nc1n2[C@H]2OC[C@@H](O)[C@H]2OC1`, the IC50 was found to be 2.08 µM in experiment [1], 3.64 µM in experiment [2], 2.76 µM in experiment [3] and 5.12 µM in experiment [4].

`O=C1C(Nc2ccccc2F)=CC(=O)c2c1nc1n2[C@H]2OC[C@@H](O)[C@H]2OC1`: the concentration for half-maximal inhibition (IC50) in experiment [1] is 2 µM; in experiment [2], more than 4 µM; in experiment [3], 2.66 µM; in experiment [4], 9.82 µM.

Take `O=C1C=C(N2CCCC2)C(=O)c2c1nc1n2[C@H]2OC[C@@H](O)[C@H]2OC1`: the half-maximal inhibitory concentration (IC50) in experiment [1], in experiment [2], in experiment [3] and in experiment [4] was more than 16 µM in each case.

As to `Cc1ccc(NC2=CC(=O)c3c(nc4n3[C@H]3OC[C@@H](O)[C@H]3OC4)C2=O)cc1C`, the 50% inhibitory concentration (IC50) in experiment [1] was 1.05 µM; in experiment [2], 4.95 µM; in experiment [3], 4.09 µM; in experiment [4] it was 4.32 µM.

For `O=C1C=C(NC2CC2)C(=O)c2c1nc1n2C[C@@H]([C@H](O)CO)OC1`, the IC50 in experiment [1], in experiment [2], in experiment [3] and in experiment [4] was more than 16 µM each time.

For `COc1cccc(NC2=CC(=O)c3nc4n(c3C2=O)[C@H]2OC[C@@H](O)[C@H]2OC4)c1`, the concentration for half-maximal inhibition (IC50) in experiment [1] is 1.78 µM; in experiment [2] it was more than 4 µM; in experiment [3] it was 7.62 µM; in experiment [4], 4.28 µM.

For the compound `O=C1C=C(NC2CCCC2)C(=O)c2c1nc1n2[C@H]2OC[C@@H](O)[C@H]2OC1`, the IC50 in experiment [1] was more than 8 µM; in experiment [2], more than 16 µM; in experiment [3], more than 16 µM; in experiment [4], more than 16 µM.

For the compound `O=C1C=C(Nc2ccccc2)C(=O)c2c1nc1n2C[C@@H]([C@H](O)CO)OC1`, the half-maximal inhibitory concentration (IC50) is 8.07 µM in experiment [1], more than 16 µM in experiment [2], more than 16 µM in experiment [3] and 6.06 µM in experiment [4].

Regarding `CCc1ccc(NC2=CC(=O)c3nc4n(c3C2=O)C[C@@H]([C@H](O)CO)OC4)cc1`, the IC50 in experiment [1] was 2.86 µM; in experiment [2], 6.73 µM; in experiment [3] it was 4.87 µM; in experiment [4] it was 2.41 µM.

As for `CCOc1ccc(NC2=CC(=O)c3c(nc4n3C[C@@H]([C@H](O)CO)OC4)C2=O)cc1`, the 50% inhibitory concentration (IC50) in experiment [1] stood at 3.46 µM; in experiment [2] it was 8.63 µM; in experiment [3] it was 7.84 µM; in experiment [4], 7.49 µM.

In the case of `O=C1C=C(Nc2ccc(Br)cc2)C(=O)c2c1nc1n2C[C@@H]([C@H](O)CO)OC1`, the concentration for half-maximal inhibition (IC50) in experiment [1] worked out at 2.75 µM; in experiment [2] it was 6.13 µM; in experiment [3], 8.25 µM; in experiment [4], 4.22 µM.

As for `COc1ccc(NC2=CC(=O)c3nc4n(c3C2=O)[C@H]2OC[C@@H](O)[C@H]2OC4)cc1`, the IC50 in experiment [1] was 1.68 µM; in experiment [2], 5.42 µM; in experiment [3], more than 4 µM; in experiment [4], 4.78 µM.

For `O=C1C(Nc2cccc(F)c2)=CC(=O)c2c1nc1n2C[C@@H]([C@H](O)CO)OC1`, the IC50 in experiment [1] is 3.04 µM; in experiment [2], 5.89 µM; in experiment [3] it was 6.56 µM; in experiment [4], more than 16 µM.

On to `O=C1C(Nc2cccc(F)c2)=CC(=O)c2c1nc1n2[C@H]2OC[C@@H](O)[C@H]2OC1`, for which the IC50 is 1.47 µM in experiment [1], more than 4 µM in experiment [2], 2.37 µM in experiment [3] and more than 8 µM in experiment [4].

On to `CCc1ccc(NC2=CC(=O)c3c(nc4n3[C@H]3OC[C@@H](O)[C@H]3OC4)C2=O)cc1`, for which the half-inhibitory concentration (IC50) in experiment [1] was 1.11 µM; in experiment [2], 8.99 µM; in experiment [3], more than 4 µM; in experiment [4], 6.51 µM.

On to `O=C1C(Nc2cccc(Cl)c2)=CC(=O)c2c1nc1n2[C@H]2OC[C@@H](O)[C@H]2OC1`, for which the half-inhibitory concentration (IC50) was 1.53 µM in experiment [1], 2.97 µM in experiment [2], 3.08 µM in experiment [3] and 7.97 µM in experiment [4].

In the case of `O=C1C(Nc2ccccc2)=CC(=O)c2c1nc1n2C[C@@H]([C@H](O)CO)OC1`, the half-maximal inhibitory concentration (IC50) in experiment [1] was found to be 4.67 µM; in experiment [2], 6.91 µM; in experiment [3], 8.38 µM; in experiment [4], 9.01 µM.
